Source: paper PMC6981941 (International Journal of Molecular Sciences, 2019)

Experiments:
[1] = biological target: T1, YpHddC (Yersinia pseudotuberculosis, UniProt Q8GJ90)
T1 construct: gene hddC

[2] = biological target: T1, YpHddC; remark: listed apart in the source

T1 sequence (Q8GJ90 1-225 limits assumed): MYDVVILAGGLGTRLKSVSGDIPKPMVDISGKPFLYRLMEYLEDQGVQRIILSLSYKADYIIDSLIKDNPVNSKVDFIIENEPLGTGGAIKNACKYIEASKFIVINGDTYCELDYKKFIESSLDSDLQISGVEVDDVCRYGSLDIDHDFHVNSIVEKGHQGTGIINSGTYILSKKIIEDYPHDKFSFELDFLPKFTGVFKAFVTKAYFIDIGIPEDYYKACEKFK

Row | SMILES | malachite green assay with pyrophosphatase [1] | X-ray crystal structure, 1.55 Å [2]
1 | O=P(O)(O)O[C@H]1O[C@H](CO)[C@@H](O)[C@H](O)[C@@H]1O [αM1P] | we used α-D-Mannose-1-phosphate (αM1P) purchased from Sigma for a substrate | 
2 | Nc1nc2c(ncn2[C@@H]2O[C@H](COP(=O)(O)OP(=O)(O)OP(=O)(O)O)[C@@H](O)[C@H]2O)c(=O)[nH]1 [GTP] | The main molecular property of YpHddC is its GTP preference | 
3 | Nc1nc2c(ncn2[C@@H]2O[C@H](COP(=O)(O)OP(N)(=O)O)[C@@H](O)[C@H]2O)c(=O)[nH]1 [GMPPN] |  | The extra densities were well matched with one magnesium, one GMPPN (Figure A1)
